Assay results from patent US6177415A, “Bacteriohopanetetrol and related compounds useful for modulation of lipoxygenase activity and anti-inflammatory applications” (The United States of America as represented by the …, priority 1997, dated 2001).
Read-outs that look alike come from different tables or passages of the source.

Experiments:
[1] = system: Arachidonic acid-induced inflammation (mouse ear); assay: Topical anti-inflammatory test against arachidonic acid-induced inflammation (mouse ear swelling); assay type: in vivo, mouse (ICR, male); settings: for % Inhibition of swelling: 1 hr A.A.; for % Inhibition of swelling / Ear Thickness Measurement, Left Ear (No A.A.) / Ear Thickness Measurement, Right Ear (1 hr. A.A.) / Swelling (R - L): n = 5/group; for Ear Thickness Measurement, Left Ear (No A.A.) / Ear Thickness Measurement, Right Ear (1 hr. A.A.) / Swelling (R - L): mean ± SEM
Protocol: The anti-inflammatory studies were carried out utilizing a topical model with arachidonic acid as the inflammation-inducing compound. 15-LO initiates the metabolic pathway leading to the formation of the lipoxins by converting arachidonic acid to […] (15-HPETE). Lipoxins may share some of the bioactivity associated with leukotrienes, the end-product associated with the 5-LO arachidonic acid metabolic pathway. A solution of arachidonic acid was applied to the surface of a mouse ear with the test substance (THBH) […]. Ear swelling was measured after an additional 60 minutes as an index of inflammation. For all test procedures, % inhibition was calculated according to the formula
where Ic is the increase in ear thickness (mm) in control mice and It is the increase in ear thickness in treated mice (see Example 5).
Arachidonic acid (2 mg in 20 μl acetone:pyridine:water) in a ratio of 7:2:1) was applied topically to the anterior and posterior surfaces of the right ear of mice 30 min following similar application of hopanoid or control (20 μl). Swelling of the ear was then measured by a Dyer model micrometer gauge after 60 min as an index of inflammation. For all test procedures, % inhibition was calculated according to formula (1). Five mice/dose level of test substance were used with negative and positive control groups run concurrently. The positive control was indomethacin.

Prostaglandin H Synthase = target: T1, Prostaglandin H Synthase (Ovis aries, UniProt P05979); assay: Prostaglandin H synthase (cyclooxygenase) assay (oxygen consumption); assay type: biochemical
T1 construct: purchased Oxford Biomedical Research Co., Oxford, Mich
T1 sequence (P05979 25-600): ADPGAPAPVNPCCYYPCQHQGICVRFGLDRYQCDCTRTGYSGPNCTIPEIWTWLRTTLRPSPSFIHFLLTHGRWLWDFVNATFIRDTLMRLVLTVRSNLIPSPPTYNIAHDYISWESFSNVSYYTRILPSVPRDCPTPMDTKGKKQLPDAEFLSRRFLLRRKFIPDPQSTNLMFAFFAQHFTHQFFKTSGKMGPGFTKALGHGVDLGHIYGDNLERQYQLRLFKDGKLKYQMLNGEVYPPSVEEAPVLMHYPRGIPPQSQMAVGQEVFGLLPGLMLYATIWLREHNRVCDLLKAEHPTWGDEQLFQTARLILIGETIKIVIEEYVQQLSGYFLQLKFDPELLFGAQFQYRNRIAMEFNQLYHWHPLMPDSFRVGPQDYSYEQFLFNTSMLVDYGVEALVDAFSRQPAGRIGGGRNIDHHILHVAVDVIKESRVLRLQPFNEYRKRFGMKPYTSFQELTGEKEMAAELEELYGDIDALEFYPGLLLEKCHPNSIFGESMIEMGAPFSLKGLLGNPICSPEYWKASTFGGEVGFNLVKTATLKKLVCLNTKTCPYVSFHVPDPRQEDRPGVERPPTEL
Protocol: Prostaglandin H synthase was obtained from Oxford Biomedical Research Co., Oxford, Mich. The reaction mixture (1.80 ml) consisted of 0.5 mM phenol, 1 μM hematin, enzyme (3.75 μg in 5 μl), 25 μl of inhibitor dissolved in ethanol, and potassium phosphate buffer (0.1 M, pH 7.8), and was preincubated for 3 min. The reaction was started by injecting 15 μl of arachidonic acid dissolved in ethanol, yielding a final concentration of 100 μM arachidonic acid in the reaction vessel. The disappearance of dissolved oxygen was monitored as described in Example 2. The assay system was checked by measuring the inhibition in indomethacin, a known inhibitor of prostaglandin H synthase.

Human 5-LO = target: T2, Human 5-LO (Homo sapiens, UniProt P09917); assay: Assay of recombinant human 5-lipoxygenase (oxygen consumption); assay type: biochemical
T2 construct: purchased Oxford Biomedical Research Co., Oxford, Mich
T2 sequence (P09917 1-674): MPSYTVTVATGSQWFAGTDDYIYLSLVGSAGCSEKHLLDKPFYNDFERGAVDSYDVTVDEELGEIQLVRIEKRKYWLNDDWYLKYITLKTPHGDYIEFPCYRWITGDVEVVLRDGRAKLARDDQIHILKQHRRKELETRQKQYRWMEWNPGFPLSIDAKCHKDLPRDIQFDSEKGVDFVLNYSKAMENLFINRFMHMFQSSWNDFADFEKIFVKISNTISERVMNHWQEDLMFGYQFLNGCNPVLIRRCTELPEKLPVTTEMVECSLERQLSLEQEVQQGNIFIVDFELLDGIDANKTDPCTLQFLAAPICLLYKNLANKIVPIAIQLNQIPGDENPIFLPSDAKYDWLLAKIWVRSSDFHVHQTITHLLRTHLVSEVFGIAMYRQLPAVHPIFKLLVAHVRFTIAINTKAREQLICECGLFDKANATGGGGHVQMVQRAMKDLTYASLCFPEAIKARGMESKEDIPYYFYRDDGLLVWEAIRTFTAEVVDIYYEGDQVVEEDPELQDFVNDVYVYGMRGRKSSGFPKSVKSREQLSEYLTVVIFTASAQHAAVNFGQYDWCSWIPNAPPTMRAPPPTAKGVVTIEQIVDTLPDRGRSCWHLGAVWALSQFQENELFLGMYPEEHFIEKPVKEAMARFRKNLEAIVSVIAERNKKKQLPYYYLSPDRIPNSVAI
Protocol: The reaction mixture (1.80 ml) consisted of 0.25 mM CaCl2, 0.13 mM ATP, 7 μl of phosphatidylcholine (12 μg/2 ml ethanol), 25 μl of inhibitor dissolved in ethanol, and Tris-HCl buffer, 50 mM, pH 7.4, and preincubated for 3 min. The reaction was started by injecting 5 μl of arachidonic acid (3.8 mg/5 ml ethanol) yielding a final arachidonic acid concentration of 4.5 μM in the reaction mixture. The rate of disappearance of dissolved oxygen was monitored with an oxygen electrode at 37° C., as described in Example 2. The O2 concentration in an air-saturated aqueous solution at 37° C. was calculated to be 0.185 mM.

Soybean 15-LO = target: T3, Soybean 15-LO (Glycine max, UniProt P08170); assay: Assay of soybean 15-lipoxygenase (oxygen consumption, Clark oxygen electrode); assay type: biochemical
T3 construct: purchased Sigma Chemical Co. (St. Louis, Mo.) Type V
T3 sequence (P08170 1-839): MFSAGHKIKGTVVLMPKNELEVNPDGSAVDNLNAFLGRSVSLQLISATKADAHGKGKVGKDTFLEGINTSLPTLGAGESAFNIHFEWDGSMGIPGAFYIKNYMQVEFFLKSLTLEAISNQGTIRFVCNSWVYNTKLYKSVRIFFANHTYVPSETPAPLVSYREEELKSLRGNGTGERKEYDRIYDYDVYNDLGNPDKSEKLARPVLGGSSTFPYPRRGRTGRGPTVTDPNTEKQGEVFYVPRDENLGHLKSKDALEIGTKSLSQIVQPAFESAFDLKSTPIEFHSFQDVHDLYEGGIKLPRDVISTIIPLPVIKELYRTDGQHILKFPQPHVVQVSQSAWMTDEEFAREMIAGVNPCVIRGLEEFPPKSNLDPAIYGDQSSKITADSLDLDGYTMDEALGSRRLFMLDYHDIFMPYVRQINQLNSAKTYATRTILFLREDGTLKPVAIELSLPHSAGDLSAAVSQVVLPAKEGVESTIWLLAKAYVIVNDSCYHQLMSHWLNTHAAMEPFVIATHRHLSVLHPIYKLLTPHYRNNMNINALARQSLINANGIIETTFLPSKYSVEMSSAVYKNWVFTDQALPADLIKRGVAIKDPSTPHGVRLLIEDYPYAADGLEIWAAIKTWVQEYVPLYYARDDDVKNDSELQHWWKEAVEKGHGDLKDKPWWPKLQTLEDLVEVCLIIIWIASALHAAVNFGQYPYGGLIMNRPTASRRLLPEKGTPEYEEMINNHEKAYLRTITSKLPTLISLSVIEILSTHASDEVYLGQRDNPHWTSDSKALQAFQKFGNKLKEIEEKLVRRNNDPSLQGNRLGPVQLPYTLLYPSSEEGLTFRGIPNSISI
Protocol: Initial screening was carried out on three hopanoids isolated from Z. mobilis (FIGS. 1,b,c,d). These compounds were purified as described and screened for their ability to inhibit three enzymes known for their activity in the metabolism of arachidonic acid. These enzymes, soybean 15-lipoxygenase (15-LO), human 5-lipoxygenase (5-LO) and prostaglandin H synthase (Table I), are known to be inhibited by most non-steroidal anti-inflammatory drugs (Parthasarathy and Rankin. 1992. Prog. Lipid. Res. vol. 31, p. 127). Soybean 15-LO was inhibited by one of the hopanoids, tetrahydroxybacteriohopane (THBH), with an IC50 of about 10 μM. […] The two other natural hopanoid compounds, THBH-GA and THBH-Et, were also evaluated for their effect on soybean 15-LO.
Soybean 15 LO (Type V) was obtained from Sigma Chemical Co. (St. Louis, Mo.). The reaction mixture (1.8 ml) consisted of 0.1 M borate buffer, pH 9.0, 5 μl (0.5 μg, 315 units) of soybean 15-LO dissolved in borate buffer, and 25 μl of inhibitor dissolved in ethanol, and was preincubated for 3 min. The reaction was started by injecting 100 μl of substrate mixture (prepared fresh daily and consisting of 1.0 mg arachidonic acid sonicated in 2.3 ml 0.1 M borate buffer, pH 9.0) yielding a final concentration of 50.9 μM arachidonic acid in the reaction vessel. The rate of disappearance of dissolved oxygen was monitored with a Clark Oxygen Electrode (Yellow Springs Instruments, Yellow Springs, Ohio) with the temperature controlled at 25° C., according to the method described by Breton et al. (1993. Prostaalandins, Leucotrienes, and Fatty Acids. vol. 49, p. 929, herein incorporated by reference). The O2 concentration in an air-saturated aqueous solution at 25° C., was calculated to be 0.24 mM. The assay system was checked by measuring the inhibition of phenidone, a known inhibitor of soybean 15-LO. Each potential inhibitor was tested at each of the listed concentrations at least three times and enzyme activities presented are the means ± standard deviations, reported as relative activities (calculated assuming that the activity in the minus-inhibitor control=100). The actual activities of the controls (in units of μM O2 consumed/min/mg protein) are also presented as a footnote to Table I.

[2] = control = 100, read-out: Enzyme Activity (Relative ± S.D.)
[3] = 25 μM, control = 100, read-out: Enzyme Activity (Relative ± S.D.)
[4] = 50 μM, control = 100, read-out: Enzyme Activity (Relative ± S.D.)
[5] = read-out: Enzyme Activity (Relative ± S.D.)

SMILES: COc1ccc2c(c1)c(CC(=O)O)c(C)n2C(=O)c1ccc(Cl)cc1 [Indomethacin, indomethacin, reference compound]
- % Inhibition of swelling ([1]; 3 mg/ear): 56%
- Ear Thickness Measurement, Left Ear (No A.A.) ([1]; 3 mg/ear): 22.2 ± 0.5 × 0.01 mm
- Ear Thickness Measurement, Right Ear (1 hr. A.A.) ([1]; 3 mg/ear): 29.4 ± 1.5 × 0.01 mm
- Swelling (R - L) ([1]; 3 mg/ear): 7.2 ± 1.5 × 0.01 mm
- remaining activity at 2.4 µM (Prostaglandin H Synthase; 2.4 μM, control = 100, read-out: Enzyme Activity (Relative ± S.D.)): 7 ± 2%

SMILES: O=C1CCN(c2ccccc2)N1 [Phenidone, phenidone, reference compound]
- remaining activity at 25 µM (Human 5-LO; [2]): 55 ± 2%
- remaining activity at 25 µM (Soybean 15-LO; [3]): 34 ± 4%

SMILES: C[C@H](CC[C@@H](O)[C@@H](O)[C@@H](O)CO)[C@H]1CC[C@]2(C)[C@H]3CC[C@@H]4[C@@]5(C)CCCC(C)(C)[C@@H]5CC[C@@]4(C)[C@]3(C)CC[C@@H]12 [THBH, tetrahydroxybacteriohopane]
- % Inhibition of swelling ([1]; 10 mg/ear): 41%
- Ear Thickness Measurement, Left Ear (No A.A.) ([1]; 10 mg/ear): 22.0 ± 0.7 × 0.01 mm
- Ear Thickness Measurement, Right Ear (1 hr. A.A.) ([1]; 10 mg/ear): 31.6 ± 1.5 × 0.01 mm
- Swelling (R - L) ([1]; 10 mg/ear): 9.6 ± 1.1 × 0.01 mm
- effect on arachidonic acid-caused swelling (in words) ([1]; mouse ear): significantly affects swelling caused by the application of arachidonic acid
- remaining activity at 25 µM (Prostaglandin H Synthase; [3]): 102 ± 3%
- remaining activity at 50 µM (Prostaglandin H Synthase; [4]): 103 ± 2%
- inhibition of prostaglandin H synthase (in words) (Prostaglandin H Synthase; 25 or 50 μM): not significantly inhibited
- remaining activity at 25 µM (Human 5-LO; [2]): 98 ± 2%
- remaining activity at 50 µM (Human 5-LO; [4]): 97 ± 1%
- inhibition of human 5-LO (in words) (Human 5-LO; 25 or 50 μM): not significantly inhibited
- IC50 (Soybean 15-LO): ~10 µM
- selectivity for 15-LO over 5-LO and prostaglandin H synthase (in words) (Soybean 15-LO): selectively inhibits 15-LO without inhibiting either 5-LO or prostaglandin H synthase
- remaining activity at 6.75 µM (Soybean 15-LO; [5]): 68 ± 5%
- remaining activity at 12.5 µM (Soybean 15-LO; [5]): 48 ± 9%
- remaining activity at 25 µM (Soybean 15-LO; [5]): 15 ± 6%
- remaining activity at 50 µM (Soybean 15-LO; [5]): 4 ± 3%
- remaining activity at 100 µM (Soybean 15-LO; [5]): 11 ± 2%

SMILES: CC(=O)OCC(OC(C)=O)C(OC(C)=O)C(CCC(C)C1CCC2(C)C1CCC1(C)C2CCC2C3(C)CCCC(C)(C)C3CCC21C)OC(C)=O (stereo not shown) [THBH-Acet]
- inhibition or stimulation of soybean 15-LO (in words) (Soybean 15-LO): destroyed its ability to inhibit this 15-LO
- remaining activity at 25 µM (Soybean 15-LO; [5]): 89 ± 11%
- remaining activity at 50 µM (Soybean 15-LO; [5]): 114 ± 17%

SMILES: CC(CCC(O)C(O)C(O)COC1C(N)C(O)C(O)C1(O)CO)C1CCC2(C)C1CCC1(C)C2CCC2C3(C)CCCC(C)(C)C3CCC21C (stereo not shown) [THBH-Et, tetrahydroxybacteriohopane ether]
- inhibition or stimulation of soybean 15-LO (in words) (Soybean 15-LO): stimulated enzyme activity
- remaining activity at 25 µM (Soybean 15-LO; [5]): 151 ± 10%
- remaining activity at 50 µM (Soybean 15-LO; [5]): 250 ± 38%

SMILES: CC(CCC(O)C(O)C(O)COC1OC(CO)C(O)C(O)C1N)C1CCC2(C)C1CCC1(C)C2CCC2C3(C)CCCC(C)(C)C3CCC21C (stereo not shown) [THBH-GA, tetrahydroxybacteriohopane glucosamine]
- inhibition or stimulation of soybean 15-LO (in words) (Soybean 15-LO): stimulated enzyme activity
- remaining activity at 25 µM (Soybean 15-LO; [5]): 172 ± 24%
- remaining activity at 50 µM (Soybean 15-LO; [5]): 188 ± 14%
